Earlier results, collected in US20020192293A1, “Method for manufacture of extended release dosage form” (priority 2001, published 2002).
Like-named read-outs stand apart in the source and are kept apart here.

Conditions: in words

| Structure (SMILES) | solubility in water | solubility in water (listed as free-phenytoin) |
| --- | --- | --- |
| O=C1NC(=O)C(c2ccccc2)(c2ccccc2)N1 [phenytoin, 5,5-diphenyl-2,4-imidazolidinedione] | poor solubility in water | practically insoluble in water |
| O=C1N=C([O-])NC1(c1ccccc1)c1ccccc1.[Na+] [sodium phenytoin, Sodium phenytoin] | much more soluble |  |
